Key:
Experiment in all cases: IC50 for competition of protein binding to Kinobeads
Details in all cases: assay detail: Kinobeads competition in P. falciparum blood-stage lysate
[1] = target: UniProt Q8IAR7
[2] = target: UniProt Q8I2B1
[3] = target: UniProt Q8IB72
[4] = target: UniProt Q8ID59
[5] = target: UniProt Q8IEH3
[6] = target: UniProt C0H4U4
[7] = target: UniProt Q6ZLZ9
[8] = target: UniProt Q8I2W4
[9] = target: UniProt O77344
[10] = target: UniProt Q8I0V2
[11] = target: UniProt Q8IIA2
[12] = target: UniProt Q8I207
[13] = target: UniProt Q8I603
[14] = target: UniProt Q8I5H4
[15] = target: UniProt Q9U0I0
[16] = target: UniProt Q8I586
[17] = target: UniProt C0H4A6
[18] = target: UniProt O96258
[19] = target: UniProt Q8IEF0
[20] = target: UniProt Q9TY96
Chain of UniProt Q9TY96 (Q9TY96 whole entry): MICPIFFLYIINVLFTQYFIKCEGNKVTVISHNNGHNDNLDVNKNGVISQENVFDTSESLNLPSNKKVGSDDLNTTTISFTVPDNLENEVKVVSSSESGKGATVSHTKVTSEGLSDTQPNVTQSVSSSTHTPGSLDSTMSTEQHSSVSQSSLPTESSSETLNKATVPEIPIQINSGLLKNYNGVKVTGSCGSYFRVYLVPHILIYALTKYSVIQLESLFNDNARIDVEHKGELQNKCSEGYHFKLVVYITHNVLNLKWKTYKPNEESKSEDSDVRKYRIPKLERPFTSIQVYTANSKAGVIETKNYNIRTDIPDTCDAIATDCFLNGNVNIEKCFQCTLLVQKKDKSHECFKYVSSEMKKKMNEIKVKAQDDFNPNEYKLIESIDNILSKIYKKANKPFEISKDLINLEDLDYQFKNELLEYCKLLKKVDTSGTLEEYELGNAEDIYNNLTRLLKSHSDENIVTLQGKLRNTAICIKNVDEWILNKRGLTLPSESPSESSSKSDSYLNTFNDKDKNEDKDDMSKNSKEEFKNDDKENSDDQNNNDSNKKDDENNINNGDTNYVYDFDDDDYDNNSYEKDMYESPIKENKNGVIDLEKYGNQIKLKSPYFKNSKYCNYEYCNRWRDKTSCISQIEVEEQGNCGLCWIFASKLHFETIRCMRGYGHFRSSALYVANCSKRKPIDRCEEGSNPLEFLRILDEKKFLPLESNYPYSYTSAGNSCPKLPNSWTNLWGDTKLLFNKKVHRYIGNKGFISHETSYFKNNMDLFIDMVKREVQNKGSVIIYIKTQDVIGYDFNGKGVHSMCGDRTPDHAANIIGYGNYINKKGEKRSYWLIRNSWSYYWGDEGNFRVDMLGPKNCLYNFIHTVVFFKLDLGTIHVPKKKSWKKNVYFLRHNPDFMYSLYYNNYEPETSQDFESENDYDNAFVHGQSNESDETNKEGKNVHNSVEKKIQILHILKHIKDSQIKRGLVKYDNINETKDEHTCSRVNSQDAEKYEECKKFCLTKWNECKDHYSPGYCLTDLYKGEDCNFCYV

[21] = target: UniProt Q6ZMA8
[22] = target: UniProt C0H517
[23] = target: UniProt Q8IAR3
[24] = target: UniProt P46468
Chain of UniProt P46468 (P46468 whole entry): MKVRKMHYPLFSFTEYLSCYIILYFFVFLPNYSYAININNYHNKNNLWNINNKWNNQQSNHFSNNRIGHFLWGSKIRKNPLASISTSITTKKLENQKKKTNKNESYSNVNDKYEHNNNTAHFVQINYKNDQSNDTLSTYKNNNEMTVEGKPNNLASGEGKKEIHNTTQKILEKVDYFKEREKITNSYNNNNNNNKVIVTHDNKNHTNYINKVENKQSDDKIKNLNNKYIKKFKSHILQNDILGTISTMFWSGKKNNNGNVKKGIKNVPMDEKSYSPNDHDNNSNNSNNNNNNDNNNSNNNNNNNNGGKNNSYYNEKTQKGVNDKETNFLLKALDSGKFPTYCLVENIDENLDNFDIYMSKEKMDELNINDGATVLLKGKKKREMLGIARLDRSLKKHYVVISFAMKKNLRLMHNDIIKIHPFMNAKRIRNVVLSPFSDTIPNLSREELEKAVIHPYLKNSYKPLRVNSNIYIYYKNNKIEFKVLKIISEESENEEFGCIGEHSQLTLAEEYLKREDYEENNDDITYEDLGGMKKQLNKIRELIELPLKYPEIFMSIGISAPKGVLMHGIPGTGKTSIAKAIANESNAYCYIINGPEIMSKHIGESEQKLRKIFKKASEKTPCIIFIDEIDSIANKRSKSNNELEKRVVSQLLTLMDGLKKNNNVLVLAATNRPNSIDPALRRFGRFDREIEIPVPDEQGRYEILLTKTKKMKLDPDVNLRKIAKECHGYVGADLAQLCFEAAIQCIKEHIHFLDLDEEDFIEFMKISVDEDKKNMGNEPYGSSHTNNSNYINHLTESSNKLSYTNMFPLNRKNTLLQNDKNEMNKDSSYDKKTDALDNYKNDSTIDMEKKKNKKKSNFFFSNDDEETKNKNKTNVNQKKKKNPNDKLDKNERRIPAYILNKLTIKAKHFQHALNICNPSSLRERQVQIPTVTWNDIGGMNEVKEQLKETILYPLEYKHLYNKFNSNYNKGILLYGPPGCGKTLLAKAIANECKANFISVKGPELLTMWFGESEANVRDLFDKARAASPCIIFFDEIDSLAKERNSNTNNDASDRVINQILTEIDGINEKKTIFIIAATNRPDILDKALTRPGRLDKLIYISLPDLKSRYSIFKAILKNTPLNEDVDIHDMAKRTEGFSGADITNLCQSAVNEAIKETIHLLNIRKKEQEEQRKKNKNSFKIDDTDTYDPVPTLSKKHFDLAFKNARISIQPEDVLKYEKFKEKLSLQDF

[25] = target: UniProt Q8IJS1
[26] = target: UniProt C6KT82
[27] = target: UniProt Q8IHT3
[28] = target: Q8ICR0 (UniProt O15865)
Chain of Q8ICR0 (O15865 whole entry, one chain of several): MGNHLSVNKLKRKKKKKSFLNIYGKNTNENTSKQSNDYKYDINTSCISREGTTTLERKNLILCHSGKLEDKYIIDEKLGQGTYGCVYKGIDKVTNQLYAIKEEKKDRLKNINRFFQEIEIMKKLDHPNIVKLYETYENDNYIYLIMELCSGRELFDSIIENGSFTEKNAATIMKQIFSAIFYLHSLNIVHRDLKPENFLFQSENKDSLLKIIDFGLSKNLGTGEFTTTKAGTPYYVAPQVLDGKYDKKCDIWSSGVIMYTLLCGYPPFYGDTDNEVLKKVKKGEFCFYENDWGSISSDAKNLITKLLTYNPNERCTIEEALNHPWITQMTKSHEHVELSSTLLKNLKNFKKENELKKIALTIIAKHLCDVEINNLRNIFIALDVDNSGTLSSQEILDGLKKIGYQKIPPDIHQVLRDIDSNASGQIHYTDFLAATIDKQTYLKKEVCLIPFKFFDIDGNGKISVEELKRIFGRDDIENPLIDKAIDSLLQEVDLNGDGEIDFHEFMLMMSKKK

[29] = target: UniProt Q8ILN8
[30] = target: UniProt Q8ID33
[31] = target: UniProt O77381
[32] = target: UniProt Q8IC16
[33] = target: UniProt C0H4P4
[34] = target: UniProt Q8IDZ2
[35] = target: UniProt Q8I374
[36] = target: UniProt C6KT23
[37] = target: UniProt Q8IHY0
[38] = target: UniProt Q8IDV2
[39] = target: UniProt Q8IKB0
[40] = target: UniProt Q8IL58
[41] = target: UniProt O77388
[42] = target: UniProt O77323
Chain of UniProt O77323 (O77323 whole entry): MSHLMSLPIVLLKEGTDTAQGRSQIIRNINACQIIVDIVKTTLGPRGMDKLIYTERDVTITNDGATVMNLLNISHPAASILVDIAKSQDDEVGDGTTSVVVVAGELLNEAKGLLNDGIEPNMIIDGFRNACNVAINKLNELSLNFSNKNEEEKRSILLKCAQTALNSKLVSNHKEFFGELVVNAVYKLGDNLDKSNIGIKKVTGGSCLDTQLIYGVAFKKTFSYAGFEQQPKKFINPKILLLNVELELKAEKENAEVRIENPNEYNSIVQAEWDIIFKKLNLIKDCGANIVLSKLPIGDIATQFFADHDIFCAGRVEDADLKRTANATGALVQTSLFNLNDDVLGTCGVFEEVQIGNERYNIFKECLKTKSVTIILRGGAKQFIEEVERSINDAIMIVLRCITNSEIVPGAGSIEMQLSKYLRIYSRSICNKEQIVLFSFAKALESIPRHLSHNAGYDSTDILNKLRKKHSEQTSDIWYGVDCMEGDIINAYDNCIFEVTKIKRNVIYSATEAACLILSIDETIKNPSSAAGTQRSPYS

[43] = target: UniProt Q8IIW6
[44] = target: UniProt C6KT13
[45] = target: UniProt Q8IAW7
[46] = target: UniProt Q8IIK4
Chain of UniProt Q8IIK4 (Q8IIK4 whole entry): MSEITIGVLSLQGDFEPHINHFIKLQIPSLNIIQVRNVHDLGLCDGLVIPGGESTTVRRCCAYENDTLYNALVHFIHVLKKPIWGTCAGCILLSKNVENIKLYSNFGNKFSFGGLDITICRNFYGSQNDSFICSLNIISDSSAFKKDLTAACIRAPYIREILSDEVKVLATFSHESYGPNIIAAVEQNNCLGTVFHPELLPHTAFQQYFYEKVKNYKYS

[47] = target: UniProt Q8I5B3
[48] = target: UniProt Q8IDY6
[49] = target: UniProt Q8I442
[50] = target: UniProt Q8IHT9
[51] = target: UniProt Q8IDZ8
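Further: native unpurified kinases from lysate captured on beads bearing immobilized kinase inhibitors, with bead-bound kinases quantified by mass spectrometry across compound doses.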

## O=c1[nH]c2ccc(Cl)cc2c(NC2CN3CCC2CC3)c1-c1nc2ccccc2[nH]1 (stereo unspecified) [CHIR-124]
[1]
  IC50: > 20 µM
[2]
  IC50: > 20 µM
[3]
  IC50: > 20 µM
[4]
  IC50: > 20 µM
[5]
  IC50: > 20 µM
[6]
  IC50: > 20 µM
[7]
  IC50: > 20 µM
[8]
  IC50: > 20 µM
[9]
  IC50: 2.95 µM
[10]
  IC50: > 20 µM
[11]
  IC50: > 20 µM
[12]
  IC50: > 20 µM
[13]
  IC50: > 20 µM
[14]
  IC50: > 20 µM
[15]
  IC50: > 20 µM
[16]
  IC50: > 20 µM
[17]
  IC50: > 20 µM
[18]
  IC50: > 20 µM
[19]
  IC50: > 20 µM
[20]
  IC50: > 20 µM
[21]
  IC50: > 20 µM
[22]
  IC50: > 20 µM
[23]
  IC50: > 20 µM
[24]
  IC50: > 20 µM
[25]
  IC50: > 20 µM
[26]
  IC50: > 20 µM
[27]
  IC50: > 20 µM
[28]
  IC50: > 20 µM
[29]
  IC50: > 20 µM
[30]
  IC50: > 20 µM
[31]
  IC50: > 20 µM
[32]
  IC50: > 20 µM
[33]
  IC50: > 20 µM
[34]
  IC50: > 20 µM
[35]
  IC50: > 20 µM
[36]
  IC50: > 20 µM
[37]
  IC50: > 20 µM
[38]
  IC50: > 20 µM
[39]
  IC50: > 20 µM
[40]
  IC50: > 20 µM
[41]
  IC50: > 20 µM
[42]
  IC50: > 20 µM
[43]
  IC50: 0.25 µM
[44]
  IC50: > 20 µM
[45]
  IC50: > 20 µM
[46]
  IC50: > 20 µM
[47]
  IC50: > 20 µM
[48]
  IC50: > 20 µM
[49]
  IC50: 9.2 µM
[50]
  IC50: > 20 µM
[51]
  IC50: > 20 µM
